Where two headings read alike, the source gives them in different places.
Tests used:
[1] = test system: MV4;11 parental cell line; experiment: CellTiter-Glo cell viability assay, MV4;11 parental; assay type: cell-based; details: Homo sapiens, MV4-11, 144 h; Compound I only, 0 to 1000 nM, 6 days, Table 3
Description: (§1) The influence of efflux pumps on the antitumor activity of the test compounds at steady state (more clinically relevant) were evaluated using P-gp-transfected AML cells (MV4;11 cells) in 6-day viability assays.
(§2) A P-gp-expressing KMT2A(MLL)-rearranged cell line model was developed by lentiviral transduction of the MV4;11 parental cell line and then selection for either Luciferase ORF (MV4;11-Control) or P-gp ORF (MV4;11-PGP).
The MV4;11 parental, MV4;11-Control, and MV4;11-PGP cells were seeded on a 96-well plate and the cell lines were treated with Compound I at doses ranging from 0 to 1000 nM for 6 days. Cell viability was measured by CellTiter-Glo® Luminescent Cell Viability Assay (CTG assay, Promega Corp.) and % Viability was quantified by normalizing to the luminescence values of DMSO-only treated cells. The dose-response curves and IC50's were calculated using GraphPad Prism 9.4.1.

MV4;11-PGP cell line = experiment: CellTiter-Glo cell viability assay, MV4;11-PGP; assay type: cell-based; set-up: unit of the concentration uncertain
Description: as §1, §2
[…] Cell viability was measured by CellTiter-Glo® Luminescent Cell Viability Assay (CTG assay, Promega Corp.) and % Viability was quantified by normalizing to the luminescence values of DMSO-only treated cells. The dose-response curves and IC50's were calculated using GraphPad Prism 9.4.1.
The measured luminescence in the live cells of the MV4;11-Control and MV4;11-PGP cells that were treated with Compound I only (+DMSO), Compound I+posaconazole […], and valspodar (1 mM) are shown in FIGS. 5A and 5B.
In a second set of experiments, MV4;11-Control and MV4;11-PGP cell lines were treated as described above with five menin inhibitors, including Compound I, SNDX-5613, Compound A, Compound B, and Compound C, at concentrations ranging from 0 to 1000 nM. All tested compounds dropped in potency due to the P-gp expression as shown in FIGS. 6A-6J and in Tables 5 and 6 (indicated by increased IC50 values between “MV4;11-Control (Compound+DMSO)” and “MV4;11-PGP (Compound+DMSO)” entries).

[2] = test system: OCI-AML3-Control cell line; experiment: Cell viability assay, OCI-AML3-Control; assay type: cell-based; set-up: unit of the concentration uncertain; details: 168 h, 7 days
Description: (§3) A third set of experiments was conducted in the cell line OCI-AML3, which carries the W288Cfs*12 mutation in NPM protein. The P-gp expressing OCI-AML3 cell line (OCI-AML3-PGP) and the Luciferase expressing OC-AML3 cell line (OCI-AML3-Control) were established by lentivirally transducing P-gp ORF or Luciferase ORF. Cells were treated with Compound I or SNDX-5613 for 7 days to assess the IC50 values.

OCI-AML3-PGP cell line = experiment: Cell viability assay, OCI-AML3-PGP; assay type: cell-based; set-up: unit of the concentration uncertain; details: 168 h, 7 days
Description: as §3

P-gp = P-gp (Homo sapiens, UniProt P08183); experiment: P-gp substrate assessment using MDR1-MDCK monolayers (Example 1, +/- valspodar); assay type: in vitro ADME; set-up: expressed in transfected cells; host or cells: MDR1-MDCK cells
P-gp, sequence (P08183 whole entry): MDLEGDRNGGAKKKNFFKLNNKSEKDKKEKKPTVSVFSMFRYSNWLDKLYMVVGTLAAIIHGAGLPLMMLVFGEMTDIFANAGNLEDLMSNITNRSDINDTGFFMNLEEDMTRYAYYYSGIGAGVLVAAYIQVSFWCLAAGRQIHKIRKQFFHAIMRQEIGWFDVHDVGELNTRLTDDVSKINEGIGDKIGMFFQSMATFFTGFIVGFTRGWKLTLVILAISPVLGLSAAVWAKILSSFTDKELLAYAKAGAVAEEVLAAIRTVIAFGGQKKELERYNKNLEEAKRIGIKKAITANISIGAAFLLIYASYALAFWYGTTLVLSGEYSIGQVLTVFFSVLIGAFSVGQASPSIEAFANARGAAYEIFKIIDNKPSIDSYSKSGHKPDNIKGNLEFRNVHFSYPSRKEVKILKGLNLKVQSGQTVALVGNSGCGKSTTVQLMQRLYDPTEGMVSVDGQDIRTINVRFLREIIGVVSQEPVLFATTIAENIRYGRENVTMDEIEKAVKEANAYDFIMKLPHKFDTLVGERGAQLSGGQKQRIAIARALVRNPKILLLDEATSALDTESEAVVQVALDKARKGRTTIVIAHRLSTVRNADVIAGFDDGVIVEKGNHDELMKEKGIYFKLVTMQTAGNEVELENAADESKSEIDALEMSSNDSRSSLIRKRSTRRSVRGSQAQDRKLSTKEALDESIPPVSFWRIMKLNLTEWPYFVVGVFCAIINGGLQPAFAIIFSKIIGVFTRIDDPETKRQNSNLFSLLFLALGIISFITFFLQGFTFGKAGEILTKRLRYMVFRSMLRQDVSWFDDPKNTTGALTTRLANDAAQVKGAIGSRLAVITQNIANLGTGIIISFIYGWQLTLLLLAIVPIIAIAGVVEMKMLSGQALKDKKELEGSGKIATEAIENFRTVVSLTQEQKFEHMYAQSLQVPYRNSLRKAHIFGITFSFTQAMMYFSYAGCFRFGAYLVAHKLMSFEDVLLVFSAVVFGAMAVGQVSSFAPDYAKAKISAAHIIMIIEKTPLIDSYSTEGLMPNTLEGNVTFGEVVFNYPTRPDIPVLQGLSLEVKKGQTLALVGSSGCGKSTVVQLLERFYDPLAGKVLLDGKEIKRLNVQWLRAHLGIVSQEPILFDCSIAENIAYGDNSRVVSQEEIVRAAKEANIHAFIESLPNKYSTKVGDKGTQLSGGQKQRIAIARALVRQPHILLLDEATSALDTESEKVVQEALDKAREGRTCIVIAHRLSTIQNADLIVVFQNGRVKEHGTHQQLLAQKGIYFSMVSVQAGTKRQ
Description: MDR1-MDCK cell monolayers were grown to confluence on collagen-coated, microporous membranes in 12-well assay plates. Details of the plates and their certification are shown below. The permeability assay buffer was Hanks' balanced salt solution (HBSS) containing 10 mM HEPES and 15 mM glucose at a pH of 7.4. The buffer in the receiver chamber also contained 1% bovine serum albumin. The dosing solution concentration was 5 μM of test article in the assay buffer+/−1 μM valspodar. Cells were first pre-incubated for 30 min with HBSS containing+/−1 μM valspodar. Cell monolayers were dosed on the apical side (A-to-B) or basolateral side (B-to-A) and incubated at 37° C. with 5% CO2 in a humidified incubator. Samples were taken from the donor and receiver chambers at 120 min. Each determination was performed in duplicate. The flux of lucifer yellow was also measured post-experimentally for each monolayer to ensure no damage was inflicted to the cell monolayers during the flux period. All samples were assayed by LC-MS/MS using electrospray ionization. Liquid chromatography conditions are summarized as follows: Column: Thermo BDS Hypersil C18 30×2.1 mm, […], with guard column; M.P. Buffer: 25 mM ammonium formate buffer, pH 3.5; Aqueous Reservoir (A): 90% water, 10% buffer; Organic Reservoir (B): 90% acetonitrile, 10% buffer; Flow Rate: 350 μL/minute; Total run time: 3.5 min; Autosampler: 10 μL injection volume; Autosampler wash: water/methanol/2-propanol: 1/1/1; with 0.2% formic acid.
The apparent permeability (Papp) and percent recovery were calculated as follows: […]
where, • dCr/dt is the slope of the cumulative concentration in the receiver compartment versus time in μM s^−1; • Vr is the volume of the receiver compartment in cm^3; • Vd is the volume of the donor compartment in cm^3; • A is the area of the insert (1.13 cm^2 for 12-well); • CA is the average of the nominal dosing concentration and the measured 120 minute donor concentration in μM; • CN is the nominal concentration of the dosing solution in μM; • Cr^final is the cumulative receiver concentration in μM at the end of the incubation period; • Cd^final is the concentration of the donor in μM at the end of the incubation period.
Efflux ratio (ER) is defined as Papp (B-to-A)/Papp (A-to-B).
• ER≥2.0 without valspodar, and reduced by ≥50% with valspodar: Positive • ER≥2.0 without valspodar, and reduced by <50% with valspodar: Negative • ER<2.0 without and with valspodar: Negative

## CNc1nc(NC2CCN(Cc3ccc4c(cc(C#N)n4C[C@H](C)N4CCN(S(C)(=O)=O)CC4)c3C)CC2)c2cc(CC(F)(F)F)sc2n1 [Compound I]
[1]
  IC50: 8.5 nM
MV4;11-PGP cell line; 120 h, MV4;11-PGP, 5 days, Table 4, read-out: IC50 (Compound I + DMSO)
  IC50: 33 nM
MV4;11-PGP cell line; 120 h, MV4;11-PGP, posaconazole (1.5 μM), 5 days, Table 4, read-out: IC50 (Compound I + Posaconazole)
  IC50: 7.1 nM
MV4;11-PGP cell line; 120 h, MV4;11-PGP, valspodar (1 μM), 5 days, Table 4, read-out: IC50 (Compound I + Valspodar)
  IC50: 4.7 nM
MV4;11-PGP cell line; 144 h, second set of experiments, 0 to 1000 nM, Table 5, read-out: IC50 MV4;11-PGP (Compound + DMSO)
  IC50: 19.1 nM
MV4;11-PGP cell line; 144 h, second set of experiments, 0 to 1000 nM, Table 6, read-out: IC50 MV4;11-PGP (Compound + DMSO)
  IC50: 19.9 nM
MV4;11-PGP cell line; second set of experiments, posaconazole (1.5 (unit uncertain)), Table 5, read-out: IC50 MV4;11-PGP (Compound + posaconazole)
  IC50: 5.79 nM
MV4;11-PGP cell line; second set of experiments, valspodar (1 (unit uncertain)), Table 6, read-out: IC50 MV4;11-PGP (Compound + valspodar)
  IC50: 5.64 nM
[2]; Table 9, read-out: IC50 OCI-AML3-Control (Compound + DMSO)
  IC50: 16.4 nM
[2]; Table 10, read-out: IC50 OCI-AML3-Control (Compound + DMSO)
  IC50: 15.3 nM
[2]; posaconazole (0.75 (unit uncertain)), Table 9, read-out: IC50 OCI-AML3-Control (Compound + posaconazole)
  IC50: 17.7 nM
[2]; valspodar (1 (unit uncertain)), Table 10, read-out: IC50 OCI-AML3-Control (Compound + valspodar)
  IC50: 19.2 nM
OCI-AML3-PGP cell line; Table 9, read-out: IC50 OCI-AML3-PGP (Compound + DMSO)
  IC50: 38.9 nM
OCI-AML3-PGP cell line; Table 10, read-out: IC50 OCI-AML3-PGP (Compound + DMSO)
  IC50: 50.2 nM
OCI-AML3-PGP cell line; posaconazole (0.75 (unit uncertain)), Table 9, read-out: IC50 OCI-AML3-PGP (Compound + posaconazole)
  IC50: 19.2 nM
OCI-AML3-PGP cell line; valspodar (1 (unit uncertain)), Table 10, read-out: IC50 OCI-AML3-PGP (Compound + valspodar)
  IC50: 15.7 nM
P-gp; A-to-B, without valspodar
  Papp Avg: 0.09 10^−6 cm/s
P-gp; MDR1-MDCK cell monolayers
  P-gp substrate: substrate of P-gp
P-gp; MDR1-MDCK, ER without and with valspodar
  P-gp Substrate Classification: Positive (ER≥2.0 without valspodar, and reduced by ≥50% with valspodar)
P-gp; dog, MDCK-MDR1, pH 7.4, A-to-B, 5 μM test article, without valspodar
  recovery at 120 min, 5 μM: 70%
P-gp; dog, MDCK-MDR1, pH 7.4, B-to-A, 5 μM test article, without valspodar
  recovery at 120 min, 5 μM: 83%
P-gp; dog, MDCK-MDR1, pH 7.4, B-to-A, without valspodar, read-out: Papp Avg
  Papp B→A at 120 min, 5 μM: 9.41 ×10⁻⁶ cm/s
P-gp; dog, MDCK-MDR1, pH 7.4, B-to-A, without valspodar, read-out: Papp R1
  Papp B→A at 120 min, 5 μM: 6.43 ×10⁻⁶ cm/s
P-gp; dog, MDCK-MDR1, pH 7.4, B-to-A, without valspodar, read-out: Papp R2
  Papp B→A at 120 min, 5 μM: 9.21 ×10⁻⁶ cm/s
P-gp; dog, MDCK-MDR1, pH 7.4, B-to-A, without valspodar, read-out: Papp R3
  Papp B→A at 120 min, 5 μM: 12.6 ×10⁻⁶ cm/s
P-gp; dog, MDCK-MDR1, pH 7.4, with valspodar 1 μM, A-to-B, 5 μM test article + 1 μM valspodar
  recovery at 120 min, 5 μM: 53%
P-gp; dog, MDCK-MDR1, pH 7.4, with valspodar 1 μM, B-to-A, 5 μM test article + 1 μM valspodar
  recovery at 120 min, 5 μM: 118%
P-gp; dog, MDCK-MDR1, pH 7.4, A-to-B, without valspodar
  Papp A→B at 120 min, 5 μM: 0.09 ×10⁻⁶ cm/s
P-gp; dog, MDCK-MDR1, pH 7.4, Papp (B-to-A)/Papp (A-to-B), without valspodar
  efflux ratio at 120 min, 5 μM: 105
